Values belong to the compound of their own block, whether it stands above or below them.
How the values were obtained:
Assay in all cases: Competitive isoTOP-ABPP in situ (fragment-treated cells)
Assay type in all cases: cell-based
[1] = biological target: cysteines in MDA-MB-231 and Ramos cells (Homo sapiens, UniProt P51610)
[2] = biological target: T1, cysteines in MDA-MB-231 and Ramos cells (Homo sapiens, UniProt Q01433)
T1 sequence (Q01433 1-825): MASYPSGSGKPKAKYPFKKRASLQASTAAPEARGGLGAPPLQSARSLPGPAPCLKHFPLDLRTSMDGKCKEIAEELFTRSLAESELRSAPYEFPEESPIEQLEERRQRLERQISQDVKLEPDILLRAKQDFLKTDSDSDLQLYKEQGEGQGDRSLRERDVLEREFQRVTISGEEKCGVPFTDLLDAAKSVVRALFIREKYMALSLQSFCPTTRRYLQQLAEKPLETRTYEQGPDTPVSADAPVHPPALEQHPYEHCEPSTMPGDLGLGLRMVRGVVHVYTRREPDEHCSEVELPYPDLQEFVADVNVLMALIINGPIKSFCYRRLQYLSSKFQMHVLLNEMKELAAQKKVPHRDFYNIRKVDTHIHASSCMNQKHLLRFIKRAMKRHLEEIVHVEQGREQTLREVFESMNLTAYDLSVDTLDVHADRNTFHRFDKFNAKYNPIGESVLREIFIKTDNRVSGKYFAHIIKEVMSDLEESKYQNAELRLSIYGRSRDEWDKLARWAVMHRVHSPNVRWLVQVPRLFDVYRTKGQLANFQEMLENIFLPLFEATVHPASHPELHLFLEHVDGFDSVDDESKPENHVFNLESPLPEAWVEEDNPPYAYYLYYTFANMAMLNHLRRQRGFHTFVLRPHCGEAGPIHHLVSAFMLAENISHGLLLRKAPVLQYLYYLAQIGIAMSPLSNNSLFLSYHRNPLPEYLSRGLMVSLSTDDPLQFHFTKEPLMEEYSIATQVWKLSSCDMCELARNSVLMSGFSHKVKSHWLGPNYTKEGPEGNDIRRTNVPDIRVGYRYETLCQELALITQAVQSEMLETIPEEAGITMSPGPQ

[3] = biological target: T2, cysteines in MDA-MB-231 and Ramos cells (Homo sapiens, UniProt Q5T440)
T2 sequence (Q5T440 40-356): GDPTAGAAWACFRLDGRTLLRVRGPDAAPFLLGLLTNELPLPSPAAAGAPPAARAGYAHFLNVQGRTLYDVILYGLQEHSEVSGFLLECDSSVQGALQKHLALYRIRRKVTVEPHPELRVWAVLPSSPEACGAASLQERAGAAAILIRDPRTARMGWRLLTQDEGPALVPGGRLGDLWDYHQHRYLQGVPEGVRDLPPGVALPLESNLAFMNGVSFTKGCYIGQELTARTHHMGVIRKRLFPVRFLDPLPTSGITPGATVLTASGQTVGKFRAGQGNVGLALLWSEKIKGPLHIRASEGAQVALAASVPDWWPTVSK

[4] = biological target: cysteines in MDA-MB-231 and Ramos cells (Homo sapiens, UniProt Q96FX7)
[5] = biological target: T3, cysteines in MDA-MB-231 and Ramos cells (Homo sapiens, UniProt Q96EB1)
T3 sequence (Q96EB1 1-424): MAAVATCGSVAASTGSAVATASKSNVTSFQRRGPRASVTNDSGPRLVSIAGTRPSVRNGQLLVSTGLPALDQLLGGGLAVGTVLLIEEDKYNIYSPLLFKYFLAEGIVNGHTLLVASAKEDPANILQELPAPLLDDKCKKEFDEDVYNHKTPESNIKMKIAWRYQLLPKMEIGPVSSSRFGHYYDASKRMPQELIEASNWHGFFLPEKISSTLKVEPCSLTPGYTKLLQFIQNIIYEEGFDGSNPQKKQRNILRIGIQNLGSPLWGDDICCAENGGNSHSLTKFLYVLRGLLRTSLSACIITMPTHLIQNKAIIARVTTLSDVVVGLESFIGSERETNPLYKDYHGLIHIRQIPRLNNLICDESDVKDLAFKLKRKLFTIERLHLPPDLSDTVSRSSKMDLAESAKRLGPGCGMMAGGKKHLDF

[6] = biological target: T4, cysteines in MDA-MB-231 and Ramos cells (Homo sapiens, UniProt Q96RS6)
T4 sequence (Q96RS6 1-583): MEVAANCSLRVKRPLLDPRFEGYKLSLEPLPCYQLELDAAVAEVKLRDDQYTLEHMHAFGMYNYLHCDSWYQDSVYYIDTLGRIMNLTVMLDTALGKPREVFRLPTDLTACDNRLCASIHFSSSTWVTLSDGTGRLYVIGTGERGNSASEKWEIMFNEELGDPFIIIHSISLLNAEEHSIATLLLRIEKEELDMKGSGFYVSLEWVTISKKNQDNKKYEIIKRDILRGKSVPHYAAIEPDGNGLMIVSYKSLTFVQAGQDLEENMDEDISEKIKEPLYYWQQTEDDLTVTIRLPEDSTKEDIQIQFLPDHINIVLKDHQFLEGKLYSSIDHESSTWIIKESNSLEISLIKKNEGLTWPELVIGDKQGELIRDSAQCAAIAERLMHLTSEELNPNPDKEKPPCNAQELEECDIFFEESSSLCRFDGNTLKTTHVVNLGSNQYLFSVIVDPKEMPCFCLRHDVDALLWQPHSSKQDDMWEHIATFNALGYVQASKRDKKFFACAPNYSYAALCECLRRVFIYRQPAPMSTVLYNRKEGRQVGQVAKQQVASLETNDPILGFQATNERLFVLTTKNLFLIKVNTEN

[7] = biological target: cysteines in MDA-MB-231 and Ramos cells (Homo sapiens, UniProt P51812)
[8] = biological target: T5, cysteines in MDA-MB-231 and Ramos cells (Homo sapiens, UniProt O75439)
T5 sequence (O75439 44-489): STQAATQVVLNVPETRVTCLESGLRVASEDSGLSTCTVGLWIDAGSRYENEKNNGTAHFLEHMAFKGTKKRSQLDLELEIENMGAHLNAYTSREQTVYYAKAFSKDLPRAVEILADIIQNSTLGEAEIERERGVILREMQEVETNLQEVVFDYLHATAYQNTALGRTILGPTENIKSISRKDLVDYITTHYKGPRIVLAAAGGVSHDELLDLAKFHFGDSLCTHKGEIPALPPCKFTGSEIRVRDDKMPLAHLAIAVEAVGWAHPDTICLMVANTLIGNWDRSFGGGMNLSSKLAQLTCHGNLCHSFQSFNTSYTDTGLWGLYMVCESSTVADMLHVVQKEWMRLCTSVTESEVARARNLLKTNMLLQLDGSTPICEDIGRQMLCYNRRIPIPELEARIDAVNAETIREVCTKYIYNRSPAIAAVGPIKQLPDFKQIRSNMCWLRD

Chain of cysteines in MDA-MB-231 and Ramos cells (Homo sapiens, UniProt Q96FX7) (Q96FX7 whole entry): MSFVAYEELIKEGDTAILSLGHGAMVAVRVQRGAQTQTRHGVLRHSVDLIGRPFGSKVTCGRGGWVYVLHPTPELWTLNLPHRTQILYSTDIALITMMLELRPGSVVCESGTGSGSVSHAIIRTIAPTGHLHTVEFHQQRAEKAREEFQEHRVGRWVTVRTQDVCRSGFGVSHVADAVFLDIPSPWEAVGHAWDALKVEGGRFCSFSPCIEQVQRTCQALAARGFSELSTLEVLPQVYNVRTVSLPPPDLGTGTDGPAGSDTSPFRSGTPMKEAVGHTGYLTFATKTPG
Chain of cysteines in MDA-MB-231 and Ramos cells (Homo sapiens, UniProt P51610) (P51610 whole entry): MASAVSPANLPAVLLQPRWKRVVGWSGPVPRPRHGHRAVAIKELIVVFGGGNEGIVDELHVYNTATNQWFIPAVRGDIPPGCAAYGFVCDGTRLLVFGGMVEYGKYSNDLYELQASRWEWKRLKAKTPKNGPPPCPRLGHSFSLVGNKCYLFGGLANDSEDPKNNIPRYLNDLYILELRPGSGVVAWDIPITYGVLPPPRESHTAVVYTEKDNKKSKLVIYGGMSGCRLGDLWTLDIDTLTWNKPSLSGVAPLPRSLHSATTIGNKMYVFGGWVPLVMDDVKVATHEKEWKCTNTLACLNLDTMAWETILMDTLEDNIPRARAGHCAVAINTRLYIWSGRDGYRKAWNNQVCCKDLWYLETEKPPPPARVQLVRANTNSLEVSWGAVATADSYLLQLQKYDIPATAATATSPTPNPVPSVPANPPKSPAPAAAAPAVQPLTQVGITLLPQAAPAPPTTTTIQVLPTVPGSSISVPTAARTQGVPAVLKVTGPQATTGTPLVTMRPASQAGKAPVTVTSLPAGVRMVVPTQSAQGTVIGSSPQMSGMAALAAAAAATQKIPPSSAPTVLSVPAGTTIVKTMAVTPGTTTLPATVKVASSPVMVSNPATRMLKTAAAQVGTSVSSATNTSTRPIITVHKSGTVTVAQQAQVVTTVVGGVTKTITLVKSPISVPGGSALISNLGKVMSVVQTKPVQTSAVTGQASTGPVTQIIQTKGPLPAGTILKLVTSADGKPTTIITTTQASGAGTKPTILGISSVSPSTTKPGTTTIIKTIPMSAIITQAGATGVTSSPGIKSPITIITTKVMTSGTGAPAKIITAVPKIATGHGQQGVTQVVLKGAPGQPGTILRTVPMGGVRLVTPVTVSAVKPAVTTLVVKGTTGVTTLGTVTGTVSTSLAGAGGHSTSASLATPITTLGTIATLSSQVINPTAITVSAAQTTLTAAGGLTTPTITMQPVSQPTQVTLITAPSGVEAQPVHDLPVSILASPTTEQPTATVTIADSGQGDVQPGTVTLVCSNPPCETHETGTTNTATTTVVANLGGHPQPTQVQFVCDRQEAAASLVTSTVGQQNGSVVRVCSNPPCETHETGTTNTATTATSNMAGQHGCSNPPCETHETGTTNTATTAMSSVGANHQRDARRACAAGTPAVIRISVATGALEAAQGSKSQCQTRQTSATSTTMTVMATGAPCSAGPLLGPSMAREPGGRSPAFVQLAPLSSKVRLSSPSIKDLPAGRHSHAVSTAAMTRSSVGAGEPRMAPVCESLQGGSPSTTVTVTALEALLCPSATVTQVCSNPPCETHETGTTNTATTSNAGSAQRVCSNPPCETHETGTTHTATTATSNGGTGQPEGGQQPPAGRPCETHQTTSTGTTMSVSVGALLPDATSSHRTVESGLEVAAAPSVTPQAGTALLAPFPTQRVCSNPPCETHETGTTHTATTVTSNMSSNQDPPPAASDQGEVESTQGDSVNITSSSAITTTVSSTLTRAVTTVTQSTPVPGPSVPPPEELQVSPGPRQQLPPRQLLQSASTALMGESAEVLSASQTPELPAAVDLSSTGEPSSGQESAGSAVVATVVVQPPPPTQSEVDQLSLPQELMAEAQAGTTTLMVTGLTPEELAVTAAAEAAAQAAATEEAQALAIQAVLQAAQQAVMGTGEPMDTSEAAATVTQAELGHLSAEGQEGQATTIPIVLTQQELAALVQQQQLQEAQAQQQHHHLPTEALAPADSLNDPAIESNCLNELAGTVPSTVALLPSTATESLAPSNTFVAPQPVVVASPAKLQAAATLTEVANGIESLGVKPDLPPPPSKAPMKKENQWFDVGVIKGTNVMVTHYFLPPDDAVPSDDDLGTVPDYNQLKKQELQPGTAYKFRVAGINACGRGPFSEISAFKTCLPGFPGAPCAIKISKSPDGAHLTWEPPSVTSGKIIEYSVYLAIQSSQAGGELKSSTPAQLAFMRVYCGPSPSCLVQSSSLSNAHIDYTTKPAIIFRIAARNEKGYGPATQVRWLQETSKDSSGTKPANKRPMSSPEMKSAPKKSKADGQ
Chain of cysteines in MDA-MB-231 and Ramos cells (Homo sapiens, UniProt P51812) (P51812 whole entry): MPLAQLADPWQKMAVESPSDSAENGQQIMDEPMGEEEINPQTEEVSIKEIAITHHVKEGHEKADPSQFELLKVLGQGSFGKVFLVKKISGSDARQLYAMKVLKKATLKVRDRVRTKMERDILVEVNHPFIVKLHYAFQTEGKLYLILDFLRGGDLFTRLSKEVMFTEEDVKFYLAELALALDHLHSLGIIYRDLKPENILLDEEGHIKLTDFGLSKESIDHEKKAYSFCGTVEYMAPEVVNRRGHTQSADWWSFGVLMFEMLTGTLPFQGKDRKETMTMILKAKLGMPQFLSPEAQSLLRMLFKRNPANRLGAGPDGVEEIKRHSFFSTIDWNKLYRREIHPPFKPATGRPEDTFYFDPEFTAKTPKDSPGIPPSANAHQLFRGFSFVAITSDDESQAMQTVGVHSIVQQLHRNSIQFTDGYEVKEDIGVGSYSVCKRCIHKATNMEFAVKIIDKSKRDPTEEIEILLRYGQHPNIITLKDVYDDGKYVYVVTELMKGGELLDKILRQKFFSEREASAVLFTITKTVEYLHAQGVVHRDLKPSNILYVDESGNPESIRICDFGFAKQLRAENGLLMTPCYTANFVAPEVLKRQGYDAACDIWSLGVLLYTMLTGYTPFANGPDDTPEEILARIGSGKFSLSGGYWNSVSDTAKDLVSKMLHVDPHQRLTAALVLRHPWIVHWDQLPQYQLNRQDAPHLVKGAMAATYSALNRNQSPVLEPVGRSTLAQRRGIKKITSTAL

Compound: COc1ccc2c(c1)CCCN2C(=O)CCl [compound 2]
isoTOP-ABPP reactivity P51610_C1872 HCFC1 ([1]; 200 μM, insitu, 231): 4.1
isoTOP-ABPP reactivity Q01433_C107 AMPD2 ([2]; 200 μM, insitu, 231): 4.4
isoTOP-ABPP reactivity Q5T440_C170 IBA57 ([3]; 200 μM, insitu, 231): 14.0
isoTOP-ABPP reactivity Q96FX7_C209 TRMT61A ([4]; 200 μM, insitu, 231): 20.0

Compound: COc1ccc(C2CC(c3cccs3)=NN2C(=O)CCl)cc1 (centres unmarked) [compound 4]
isoTOP-ABPP reactivity Q01433_C107 AMPD2 ([2]; 100 μM in situ 231): 2.3
isoTOP-ABPP reactivity Q5T440_C170 IBA57 ([3]; 100 μM in situ 231): 1.5
isoTOP-ABPP reactivity Q96EB1_C218 ELP4 ([5]; 100 μM in situ 231): 20.0
isoTOP-ABPP reactivity Q96FX7_C209 TRMT61A ([4]; 100 μM in situ 231): 2.4
isoTOP-ABPP reactivity Q96RS6_C376 NUDCD1 ([6]; 100 μM in situ 231): 1.6

Compound: COc1cc2c(cc1OC)CN(C(=O)CCl)CC2 [compound 8]
isoTOP-ABPP reactivity Q01433_C107 AMPD2 ([2]; 200 μM, insitu, 231): 6.2

Compound: O=C(CCl)N1CCC(Cc2ccccc2)CC1 [compound 9]
isoTOP-ABPP reactivity P51812_C436 RPS6KA3 ([7]; 200 μM, insitu, 231): 2.1
isoTOP-ABPP reactivity Q01433_C107 AMPD2 ([2]; 200 μM, insitu, 231): 3.1
isoTOP-ABPP reactivity Q96EB1_C218 ELP4 ([5]; 200 μM, insitu, 231): 8.4
isoTOP-ABPP reactivity Q96RS6_C376 NUDCD1 ([6]; 200 μM, insitu, 231): 2.2

Compound: O=C(CCl)N1CCN(S(=O)(=O)c2ccccc2F)CC1 [compound 10]
isoTOP-ABPP ratio, cysteine O75439_C265 ([8]; 200 μM, insitu, ramos): 2.1
isoTOP-ABPP ratio, cysteine P51610_C1872 ([1]; 200 μM, insitu, 231): 1.5
isoTOP-ABPP ratio Q5T440_C170 ([3]; 200 μM, insitu, 231): 5.7
isoTOP-ABPP ratio, cysteine Q96EB1_C218 ([5]; 200 μM, insitu, 231): 1.1
isoTOP-ABPP ratio Q96RS6_C376 ([6]; 200 μM, insitu, 231): 5.7

Compound: Cn1cc(S(=O)(=O)N2CCOCC2)cc1C(=O)NC(=O)CCl [compound 11]
isoTOP-ABPP ratio, cysteine O75439_C265 ([8]; 100 μM in situ 231): 1.0
isoTOP-ABPP ratio, cysteine P51610_C1872 ([1]; 100 μM in situ 231): 0.5
isoTOP-ABPP ratio, cysteine P51812_C436 ([7]; 100 μM in situ 231): 0.5
isoTOP-ABPP ratio, cysteine Q01433_C107 ([2]; 100 μM in situ 231): 0.6
isoTOP-ABPP ratio Q96RS6_C376 ([6]; 100 μM in situ 231): 0.8

Compound: O=C(CCl)NC(=O)NC12CC3CC(CC(C3)C1)C2 [compound 12]
isoTOP-ABPP ratio, cysteine P51812_C436 ([7]; 200 μM, insitu, 231): 1.4
isoTOP-ABPP ratio, cysteine Q96FX7_C209 ([4]; 200 μM, insitu, 231): 20.0
isoTOP-ABPP ratio Q96RS6_C376 ([6]; 200 μM, insitu, 231): 1.1

Compound: O=C(CCl)NCCc1c[nH]c2ccccc12 [compound 13]
isoTOP-ABPP ratio, cysteine P51610_C1872 ([1]; 200 μM, insitu, 231): 1.0
isoTOP-ABPP ratio, cysteine P51812_C436 ([7]; 200 μM, insitu, 231): 1.0
isoTOP-ABPP ratio Q5T440_C170 ([3]; 200 μM, insitu, 231): 1.2
isoTOP-ABPP ratio, cysteine Q96EB1_C218 ([5]; 200 μM, insitu, 231): 1.2
isoTOP-ABPP ratio, cysteine Q96EB1_C218 ([5]; 200 μM, insitu, ramos): 1.7
isoTOP-ABPP ratio, cysteine Q96FX7_C209 ([4]; 200 μM, insitu, 231): 2.1
isoTOP-ABPP ratio, cysteine Q96FX7_C209 ([4]; 200 μM, insitu, ramos): 6.8
isoTOP-ABPP ratio Q96RS6_C376 ([6]; 200 μM, insitu, 231): 0.7
isoTOP-ABPP ratio Q96RS6_C376 ([6]; 200 μM, insitu, ramos): 1.2

Compound: O=C(CCl)NC12CC3CC(CC(C3)C1)C2 [compound 21]
isoTOP-ABPP ratio Q5T440_C170 ([3]; 200 μM, insitu, 231): 1.6
isoTOP-ABPP ratio, cysteine Q96EB1_C218 ([5]; 200 μM, insitu, 231): 0.7
isoTOP-ABPP ratio, cysteine Q96FX7_C209 ([4]; 200 μM, insitu, 231): 2.0
isoTOP-ABPP ratio Q96RS6_C376 ([6]; 200 μM, insitu, 231): 1.4

Compound: CC(C)CCOCCNC(=O)CCl [compound 27]
isoTOP-ABPP ratio O75439_C265 ([8]; 200 μM, insitu, 231): 1.6
isoTOP-ABPP ratio Q01433_C107 ([2]; 200 μM, insitu, 231): 0.4
isoTOP-ABPP ratio Q96EB1_C218 ([5]; 200 μM, insitu, 231): 0.6

The remaining lines, values ahead:

isoTOP-ABPP ratio O75439_C265 ([8]; 200 μM, insitu, 231): 0.6
Compound: COc1ccccc1OCCNC(=O)CCl [compound 28]

isoTOP-ABPP ratio P51812_C436 ([7]; 200 μM, insitu, ramos): 1.3
isoTOP-ABPP ratio Q5T440_C170 ([3]; 200 μM, insitu, ramos): 1.3
isoTOP-ABPP ratio Q96EB1_C218 ([5]; 200 μM, insitu, ramos): 1.1
isoTOP-ABPP ratio Q96RS6_C376 ([6]; 200 μM, insitu, ramos): 1.3
Compound: O=C(CCl)N1CCN(CC(=O)N2CCOCC2)CC1 [compound 29]

isoTOP-ABPP ratio O75439_C265 ([8]; 200 μM, insitu, 231): 1.0
isoTOP-ABPP ratio O75439_C265 ([8]; 200 μM, insitu, ramos): 1.4
isoTOP-ABPP ratio Q01433_C107 ([2]; 200 μM, insitu, 231): 0.7
isoTOP-ABPP ratio Q96RS6_C376 ([6]; 200 μM, insitu, 231): 0.8
Compound: C=CC(=O)N(Cc1cccnc1)c1cc(C(F)(F)F)cc(C(F)(F)F)c1 [compound 31]

isoTOP-ABPP ratio P51610_C1872 ([1]; 200 μM, insitu, 231): 1.3
isoTOP-ABPP ratio Q96EB1_C218 ([5]; 200 μM, insitu, 231): 1.3
isoTOP-ABPP ratio Q96FX7_C209 ([4]; 200 μM, insitu, 231): 1.0
isoTOP-ABPP ratio Q96RS6_C376 ([6]; 200 μM, insitu, 231): 1.3
Compound: C=CC(=O)Nc1cc(F)c(N2CCN(C(=O)OC(C)(C)C)CC2)c(F)c1 [compound 38]

isoTOP-ABPP ratio O75439_C265 ([8]; 200 μM, insitu, 231): 1.3
isoTOP-ABPP ratio P51610_C1872 ([1]; 200 μM, insitu, 231): 0.5
isoTOP-ABPP ratio P51812_C436 ([7]; 200 μM, insitu, 231): 4.5
isoTOP-ABPP ratio Q01433_C107 ([2]; 200 μM, insitu, 231): 0.5
isoTOP-ABPP ratio Q5T440_C170 ([3]; 200 μM, insitu, 231): 0.7
isoTOP-ABPP ratio Q96RS6_C376 ([6]; 200 μM, insitu, 231): 0.7
Compound: Cc1ccc(C=C(C#N)C(=O)NCCN2CCOCC2)cc1 [compound 41]

isoTOP-ABPP ratio Q5T440_C170 ([3]; 200 μM, insitu, 231): 3.5
isoTOP-ABPP ratio Q96EB1_C218 ([5]; 200 μM, insitu, 231): 20.0
isoTOP-ABPP ratio Q96FX7_C209 ([4]; 200 μM, insitu, 231): 20.0
Compound: CC1CCc2ccccc2N1C(=O)CCl (centres unmarked) [compound 45]

— patent US10670605B2, “Cysteine reactive probes and uses thereof” (The Scripps Research Institute, priority 2015, dated 2020)
